Source: patent US20240417370A1, “LIPIDS FOR USE IN LIPID NANOPARTICLE FORMULATIONS” (Acuitas Therapeutics, Inc., priority 2023, published 2024)

Tested on: human IgG in mouse serum
Assay: Immunoglobulin G (IgG) mRNA in vivo evaluation using lipid nanoparticle compositions
Design: species or system mice
Conditions: LNP-formulated lipid, tail vein injection, μg IgG/mL serum 24 hours after administration; for Serum IgG @ 0.3 mg/kg: 0.3 mg mRNA/kg; for Serum IgG @ 1.0 mg/kg: 1.0 mg mRNA/kg
Procedure: A lipid of structure (I), DSPC, cholesterol and PEG-lipid are solubilized in ethanol at a molar ratio of 50:10:38.5:1.5 or 47.5:10:40.7:1.8. Lipid nanoparticles (LNP) are prepared at a total lipid to mRNA weight ratio of approximately 10:1 to 40:1. Briefly, the mRNA is diluted to 0.2 mg/mL in 10 to 50 mM citrate buffer, pH 4 to 6 or 10 to 25 mM acetate buffer, pH 4 to 6. Syringe pumps are used to mix the ethanolic lipid solution with the mRNA aqueous solution at a ratio of about 1:5 to 1:3 (vol/vol) with total flow rates above 15 mL/min. The ethanol is then removed, and the external buffer replaced with PBS by dialysis. Finally, the lipid nanoparticles are filtered through a 0.2 µm pore sterile filter.
Studies are performed in 6-8-week-old CD-1/ICR mice (Envigo, Charles River, or Inotiv) according to guidelines established by an institutional animal care committee (ACC) and the Canadian Council on Animal Care (CCAC). Varying doses of mRNA-lipid nanoparticle are systemically administered by tail vein injection and animals euthanized at a specific time point (e.g., 24 hours) post-administration. The whole blood is collected, and the serum subsequentially separated by centrifuging the tubes of the whole blood at 2000×g for 10 minutes at 4° C. and stored at −80° C. until use for analysis.
For immunoglobulin G (IgG) ELISA (Life Diagnostics Human IgG ELISA kit), the serum samples are diluted at 100 to 20,000 folds with 1× diluent solution. 100 μL of diluted serum is dispensed into anti-human IgG coated 96-well plate in duplicate alongside human IgG standards and incubated in a plate shaker at 150 rpm at 25° C. for 45 minutes. The wells are washed 5 times with 1× wash solution using a plate washer (400 μL/well). 100 μL of HRP conjugate is added into each well and incubated in a plate shaker at the same condition above. The wells are washed 5 times again with 1× wash solution using a plate washer (400 μL/well). 100 μL of TMB reagent is added into each well and incubated in a plate shaker at the same condition above. The reaction is stopped by adding 100 μL of Stop solution to each well. The absorbance is read at 450 nm (A450) with a microplate reader. The amount of human IgG in mouse serum is determined by plotting A450 values for the assay standard against human IgG concentration.
Representative compounds of the disclosure shown in Table 2 were formulated using the following molar ratio: 50% cationic lipid/10% distearoylphosphatidylcholine (DSPC)/38.5% Cholesterol/1.5% PEG lipid 2-[2-(ω-methoxy(polyethyleneglycol2000)ethoxy]-N,N-ditetradecylacetamide) or 47.5% cationic lipid/10% DSPC/40.7% Cholesterol/1.8% PEG lipid. Relative activity was determined by measuring luciferase expression in the liver 4 hours following administration via tail vein injection as described in Example 1 or by measuring the amount of human IgG in mouse serum as described in example 2. The activity was compared at a dose of 1.0 or 0.5 or 0.3 mg mRNA/kg and expressed as ng luciferase/g liver measured 4 hours after administration, as described in Example 1 or as μg IgG/mL serum measured 24 hours after administration, as described in Example 2. Compound numbers in Table 2 refer to the compound numbers of Table 1.

SMILES | Serum IgG @ 0.3 mg/kg [µg/mL] | Serum IgG @ 1.0 mg/kg [µg/mL]
CCCCCCCCCCN(CCCCCCCCCC)C(=O)CCCCCCCN(CCCCCCCC(=O)N(CCCCCCCCCC)CCCCCCCCCC)[C@H]1C[C@@H](O)C1 [(1S, 3S) I-10, 8,8′-(((1S,3S)-3-hydroxycyclobutyl)azanediyl)bis(N,N-didecyloctanamide)] | 27.62 ± 9.67 | 187.67 ± 66.41
CCCCCCCCCCN(CCCCCCCCN(CCCCCCCC(=O)N(CCCCCCCCCC)CCCCCCCCCC)C[C@H]1C[C@@H](O)C1)C(=O)CCCCCCCCC [(1S, 3S) I-21, N-decyl-N-(8-((8-(didecylamino)-8-oxooctyl)(((1S,3S)-3-hydroxycyclobutyl)methyl)amino)octyl)decanamide] | 71.49 ± 12.31 | 
CCCCCCCCCCN(CCCCCCCCN(CCCCCCCCN(CCCCCCCCCC)C(=O)CCCCCCCCC)C[C@H]1C[C@@H](O)C1)C(=O)CCCCCCCCC [(1S, 3S) I-22, N,N′-(((((1S,3S)-3-hydroxycyclobutyl)methyl)azanediyl)bis(octane-8,1-diyl))bis(N-decyldecanamide)] | 50.48 ± 11.93 | 
CCCCCCCCCCN(CCCCCCCCCC)C(=O)CCCCCCCN(CCCCCCCC(=O)N(CCCCCCCCCC)CCCCCCCCCC)[C@H]1C[C@@H](CO)C1 [(1S, 3S) I-24, 8,8′-(((1S,3S)-3-(hydroxymethyl)cyclobutyl)azanediyl)bis(N,N-didecyloctanamide)] | 20.09 ± 5.90 | 57.71 ± 10.58
CCCCCCCCCCN(CCCCCCCCCC)C(=O)CCCCCCCN(CCCCCCCC(=O)N(CCCCCCCCCC)CCCCCCCCCC)[C@H]1CC[C@@H](O)CC1 [(1S, 4S) I-9, 8,8′-(((1s,4s)-4-hydroxycyclohexyl)azanediyl)bis(N,N-didecyloctanamide)] | 97.57 ± 19.26 | 257.42 ± 91.86
CCCCCCCCCCN(CCCCCCCCCC)C(=O)CCCCCCCN(CCCCCCCC(=O)N(CCCCCCCCCC)CCCCCCCCCC)[C@H]1CC[C@@H](CO)CC1 [(1S, 4S) I-23, 8,8′-(((1S,4S)-4-(hydroxymethyl)cyclohexyl)azanediyl)bis(N,N-didecyloctanamide)] | 34.48 ± 9.25 | 273.72 ± 52.70
CCCCCCCCCCN(CCCCCCCCCC)C(=O)CCCCCCCN(CCCCCCCC(=O)N(CCCCCCCCCC)CCCCCCCCCC)[C@H]1CC[C@@](C)(O)CC1 [(1S, 4S) I-25, 8,8′-(((1S,4S)-4-hydroxy-4-methylcyclohexyl)azanediyl)bis(N,N-didecyloctanamide)] | 39.96 ± 10.72 | 194.38 ± 27.83
CCCCCCCCCCN(CCCCCCCCN(CCCCCCCC(=O)N(CCCCCCCCCC)CCCCCCCCCC)[C@H]1CC[C@@H](O)CC1)C(=O)CCCCCCCCC [(1S, 4S) I-47, N-decyl-N-(8-((8-(didecylamino)-8-oxooctyl)((1s,4s)-4-hydroxycyclohexyl)amino)octyl)decanamide] | 55.53 ± 11.50 | 158.59 ± 40.38
CCCCCCCCCCN(CCCCCCCCCC)C(=O)C(F)CCCCCCN(CCCCCCC(F)C(=O)N(CCCCCCCCCC)CCCCCCCCCC)[C@H]1CC[C@@H](O)CC1 (stereo partly drawn) [(1S, 4S) I-49, 8,8′-(((1s,4s)-4-hydroxycyclohexyl)azanediyl)bis(N,N-didecyl-2-fluorooctanamide)] | 60.49 ± 26.40 | 332.8 ± 57.13
CCCCCCCCCC(CCCCCCCCC)NC(=O)CCCCCCCN(CCCCCCCC(=O)NC(CCCCCCCCC)CCCCCCCCC)[C@H]1CC[C@@H](O)CC1 [(1S, 4S) I-50, 8,8′-(((1s,4s)-4-hydroxycyclohexyl)azanediyl)bis(N-(nonadecan-10-yl)octanamide)] | 29.82 ± 7.79 | 
C=CCCCCCCCCN(CCCCCCCCCC)C(=O)CCCCCCCN(CCCCCCCC(=O)N(CCCCCCCCC=C)CCCCCCCCCC)[C@H]1CC[C@@H](O)CC1 [(1S, 4S) I-51, 8,8′-(((1s,4s)-4-hydroxycyclohexyl)azanediyl)bis(N-(dec-9-en-1-yl)-N-decyloctanamide)] | 80.37 ± 26.77 | 
